This is an account of results in US12351559B2 (Biohaven Therapeutics Ltd., priority 2014, dated 2025).

The experiment deals with T1, Kv7.2/7.3 (Homo sapiens, UniProt O43525+O43526).
T1 construct: host or cells: HEK cells, tetracycline-inducible expression
Put plainly: Kv7.2/7.3 activation assay, QPatch planar patch-clamp, single concentration screen. It is filed as cell-based. More on the design: key: <1.2-fold increase over baseline (−); +/−: as a range from <1.2-fold increase over baseline (−) up to >6-fold increase over baseline (+++); as a range from <1.2-fold increase over baseline (−) up to >6-fold increase over baseline (+++); as a range from <1.2-fold increase over baseline (−) up to >6-fold increase over baseline (+++); >6-fold increase over baseline (+++). Conditions: Kv7.2/Kv7.3 co-expressing HEK cells, compound 3 μM, steady-state current at end of 2 s pulse to −30 mV. Here is the method:
The ability of compounds to potentiate K-currents in Kv7.2/7.3 containing HEK cells was assessed using planar patch-clamp on the QPatch automated screening platform.
Cell Line: The hKv7.2/7.3 cell line was obtained from Chantest (Cleveland, OH 44128) cat. #CT6147. These HEK cells will express the Kv7.2/7.3 ion channels when induced.
Cell Culture: Cells were maintained in a media containing DMEM/F12; 50/50 (GIBCO cat. #11330), 10% Fetal Bovine Serum (FBS) (GIBCO cat. #26140), 100 units/mL Penicillin-Streptomycin (GIBCO cat. #15140), 0.005 mg/mL Blasticidin (INVIVOGEN cat. #ant-bl-1), 0.5 mg/mL Geneticin (GIBCO cat. #10131), 0.1 mg/ml Zeocin (GIBCO cat. #R25001). Cells used in the electrophysiology assay were maintained in a media without Blasticidin, Geneticin and Zeocin for 2 days and channel expression was induced by adding tetracycline (BIOLINE cat. #BIO-87030) at a final concentration of 1 mg/mL. Cells were grown in T-175 flask to ˜75% confluency. Currents were recorded 24 hours after channel induction.
Compound Plates: Test compounds were prepared by performing serial dilutions on a Biomek NX^P (BECKMAN COULTER). Final dilutions were made in external recording solution with a final DMSO concentration of 0.1% DMSO. For single concentration screens each plate had 10 μM retigabine as a positive control and 0.1% DMSO as a negative control.
Electrophysiology: On the day of the experiment cells were washed with Hank's Balanced Salt Solution (HBBS) (GIBCO cat. #14175) and harvested with Tryple (GIBCO cat. #12604). Cells were then centrifuged at 2000 rpm for 5 minutes and resuspended in CHO-S-SFM (GIBCO cat. #12052) at ˜3×10^6 cells/mL. Cells were stirred for 30 minutes before experiments were started. External recording solution contained (in mM): NaCl (145), KCl (4), CaCl2 (2), MgCl2 (1), HEPES (10) and Glucose (10); pH was adjusted to 7.4 with NaOH and the osmolarity was adjusted to 300-305 mOsM with sucrose if necessary. Internal solution contained (in mM): KCl (125), KF (10), EGTA (5), Na2ATP (5), MgCl2 (3.2), HEPES (5); pH was adjusted to 7.2 with KOH and the osmolarity was adjusted to 298-302 mOsM with sucrose.
Potassium channel activity was measured on the QPatch HTX (Sophion Bioscience) using QPlates with 48-wells/plate. Each cell was taken as an independent experiment and only one compound was tested per well. Potassium channel activity was elicited by holding at −80 mV and stepping to −30 mV for 2 s followed by a 100 ms pulse to −120 mV.
Single concentration screen: Baseline conditions were obtained by recording 5 sweeps in the external solution only, this was repeated for three applications of the external solution. […] The steady-state current at the end of the 2 s pulse to −30 mV was measured to determine the fold increase from baseline.
For orientation: Patch clamp records ionic current or voltage across a cell membrane.

`CC(C)(C)CC(=O)Nc1nc2ccccc2n1C1CCC1` [Example 1, N-(1-cyclobutyl-1H-benzo[d]imidazol-2-yl)-3,3-dimethylbutanamide]: the “Kv7.2/7.3 Activity: increase in current over baseline” value (from here on “Kv7.2/7.3 Activity: increase”) is recorded as “+”.
Then `CC(C)(C)CC(=O)Nc1nc2ccccc2n1-c1ccccc1` [Example 2, 3,3-dimethyl-N-(1-phenyl-1H-benzo[d]imidazol-2-yl)butanamide], with “+”; and `COc1ccc2nc(NC(=O)CCC3CCCC3)n(C(C)C)c2c1` [Example 3, 3-cyclopentyl-N-(1-isopropyl-6-methoxy-1H-benzo[d]imidazol-2-yl)propanamide], with “+++ (>6-fold increase over baseline (+++))”; and `COc1ccc2nc(NC(=O)[C@@H](C)C(C)C)n(C(C)C)c2c1` [Example 4, (S)-N-(1-isopropyl-6-methoxy-1H-benzo[d]imidazol-2-yl)-2,3-dimethylbutanamide], with “+/−”.
Then `CC(C)(C)CC(=O)Nc1nc2ccc(C#N)cc2n1C1CCC1` [Example 5, N-(6-cyano-1-cyclobutyl-1H-benzo[d]imidazol-2-yl)-3,3-dimethylbutanamide], with “+++ (>6-fold increase over baseline (+++))”; and `CC(C)[C@H](C)C(=O)Nc1nc2ccc(C#N)cc2n1C1CCC1` [Example 6, (S)-N-(6-cyano-1-cyclobutyl-1H-benzo[d]imidazol-2-yl)-2,3-dimethylbutanamide], with “+”; and `CC(C)(O)CC(=O)Nc1nc2ccc(C#N)cc2n1C1CCC1` [Example 8, N-(6-cyano-1-cyclobutyl-1H-benzo[d]imidazol-2-yl)-3-hydroxy-3-methylbutanamide], with “+”.
Then `N#Cc1ccc2nc(NC(=O)C3CC(F)(F)C3)n(C3CCC3)c2c1` [Example 9, N-(6-cyano-1-cyclobutyl-1H-benzo[d]imidazol-2-yl)-3,3-difluorocyclobutane-1-carboxamide], with “+”; and `N#Cc1ccc2nc(NC(=O)[C@@H]3C[C@@H]4CC[C@H]3C4)n(C3CCC3)c2c1` [Example 10, (1S,2R,4R)-N-(6-cyano-1-cyclobutyl-1H-benzo[d]imidazol-2-yl)bicyclo[2.2.1]heptane-2-carboxamide], with “+”; and `CC1(C)C[C@@H]1C(=O)Nc1nc2ccc(C#N)cc2n1C1CCC1` [Example 11, (S)-N-(6-cyano-1-cyclobutyl-1H-benzo[d]imidazol-2-yl)-2,2-dimethylcyclopropane-1-carboxamide], with “++”.
On to `COC(C)(C)CC(=O)Nc1nc2ccc(C#N)cc2n1C1CCC1` [Example 12, N-(6-cyano-1-cyclobutyl-1H-benzo[d]imidazol-2-yl)-3-methoxy-3-methylbutanamide], for which the “Kv7.2/7.3 Activity: increase” value was “+/−”.
Then `C[C@H](C(=O)Nc1nc2ccc(C#N)cc2n1C1CCC1)C(C)(C)O` [Example 13, (S)-N-(6-cyano-1-cyclobutyl-1H-benzo[d]imidazol-2-yl)-3-hydroxy-2,3-dimethylbutanamide], with “+/−”.
Then `CC(C)[C@@H](C)C(=O)Nc1nc2ccc(C#N)cc2n1C1CCC1` [Example 14, (R)-N-(6-cyano-1-cyclobutyl-1H-benzo[d]imidazol-2-yl)-2,3-dimethylbutanamide], with “+/−”; and `CC(C)(O)[C@H]1C[C@@H]1C(=O)Nc1nc2ccc(C#N)cc2n1C1CCC1` [Example 15, (1S,2S)-N-(6-cyano-1-cyclobutyl-1H-benzo[d]imidazol-2-yl)-2-(2-hydroxypropan-2-yl)cyclopropane-1-carboxamide], with “+/−”; and `C[C@](O)(C(=O)Nc1nc2ccc(C#N)cc2n1C1CCC1)C(F)(F)F` [Example 16, (S)-N-(6-cyano-1-cyclobutyl-1H-benzo[d]imidazol-2-yl)-3,3,3-trifluoro-2-hydroxy-2-methylpropanamide], with “+/−”.
Then `CC(O)(CC(=O)Nc1nc2ccc(C#N)cc2n1C1CCC1)c1ccccc1` (stereo not drawn) [Example 17, N-(6-cyano-1-cyclobutyl-1H-benzo[d]imidazol-2-yl)-3-hydroxy-3-phenylbutanamide], with “++”; and `C[C@H](C(=O)Nc1nc2ccc(C#N)cc2n1C1CCC1)[C@@](C)(O)c1ccccc1` [Example 18, (2S,3R)-N-(6-cyano-1-cyclobutyl-1H-benzo[d]imidazol-2-yl)-3-hydroxy-2-methyl-3-phenylbutanamide], with “+”.
Take `C[C@H](C(=O)Nc1nc2ccc(C#N)cc2n1C1CCC1)[C@](C)(O)c1ccccc1` [Example 19, (2S,3S)-N-(6-cyano-1-cyclobutyl-1H-benzo[d]imidazol-2-yl)-3-hydroxy-2-methyl-3-phenylbutanamide]: the “Kv7.2/7.3 Activity: increase” value is “+”.
Then `C[C@](O)(CC(=O)Nc1nc2ccc(C#N)cc2n1C1CCC1)c1ccccn1` [Example 20, (S)-N-(6-cyano-1-cyclobutyl-1H-benzo[d]imidazol-2-yl)-3-hydroxy-3-(pyridin-2-yl)butanamide], with “+”; and `C[C@](O)(CC(=O)Nc1nc2ccc(C#N)cc2n1C1CCC1)c1cccnc1` [Example 21, (S)-N-(6-cyano-1-cyclobutyl-1H-benzo[d]imidazol-2-yl)-3-hydroxy-3-(pyridin-3-yl)butanamide], with “+/−”.
For the molecule `C[C@H](C(=O)Nc1nc2ccc(C#N)cc2n1C1CCC1)N(C)CC(F)(F)F` [Example 22, (R)-N-(6-cyano-1-cyclobutyl-1H-benzo[d]imidazol-2-yl)-2-(methyl(2,2,2-trifluoroethyl)amino)propanamide], the “Kv7.2/7.3 Activity: increase” value was “+/−”.
The same measure for `C[C@H](C(=O)Nc1nc2ccc(C#N)cc2n1C1CCC1)C(C)(C)C` [Example 23, (S)-N-(6-cyano-1-cyclobutyl-1H-benzo[d]imidazol-2-yl)-2,3,3-trimethylbutanamide]: “++”; for `CN(C)C(CC(=O)Nc1nc2ccc(C#N)cc2n1C1CCC1)C(F)(F)F` (stereo not drawn) [Example 24, N-(6-cyano-1-cyclobutyl-1H-benzo[d]imidazol-2-yl)-3-(dimethylamino)-4,4,4-trifluorobutanamide]: “+”.
Then `N#Cc1ccc2nc(NC(=O)C[C@@H](O)c3ccccc3)n(C3CCC3)c2c1` [Example 25, (R)-N-(6-cyano-1-cyclobutyl-1H-benzo[d]imidazol-2-yl)-3-hydroxy-3-phenylpropanamide], with “+/−”; and `N#Cc1ccc2nc(NC(=O)C[C@H](O)c3ccccc3)n(C3CCC3)c2c1` [Example 26, (S)-N-(6-cyano-1-cyclobutyl-1H-benzo[d]imidazol-2-yl)-3-hydroxy-3-phenylpropanamide], with “+/−”.
Consider `C[C@H](C(=O)Nc1nc2ccc(C#N)cc2n1C1CCC1)C1(O)CCC1` [Example 27, (S)-N-(6-cyano-1-cyclobutyl-1H-benzo[d]imidazol-2-yl)-2-(1-hydroxycyclobutyl)propanamide], for which the “Kv7.2/7.3 Activity: increase” value is recorded as “+/−”.
The same measure for `CC(O)(CC(=O)Nc1nc2ccc(C#N)cc2n1C1CCC1)C1CC1` (stereo not drawn) [Example 28, N-(6-cyano-1-cyclobutyl-1H-benzo[d]imidazol-2-yl)-3-cyclopropyl-3-hydroxybutanamide]: “+/−”.
